Reference: patent US9957270B2, “Fused pyrimidine-based hydroxamate derivatives” (Agency for Science, Technology and Research, priority 2014, dated 2018)

Key:
HEL9217 = assay: Anti-proliferative assay (cellular IC50), HEL9217; conditions: Homo sapiens, HEL 92.1.7, read-out: In Vitro Cellular IC50 HEL9217
Experimental: Cells were cultivated at 37° C., 5% CO2 in media containing 10% FBS and 2 mM glutamine Cells were routinely monitored with MycoAlert™ PLUS Mycoplasma Detection Kit (Lonza Walkersville, Inc.) to make sure they were mycoplasma free. Antibiotics (100 U/mL of penicillin and 100 μg/mL of streptomycin) were only added to the media used for compound dilution and cells in 96-well assay plates.
For a typical screening experiment, cells (100 μL/well) are inoculated into 96 well microtiter plates at plating densities ranging from 2,000 to 30,000 cells/well depending on the doubling time of individual cell lines and assay linearity. […] Suspension cells are treated with test compounds immediately after cell inoculation.
Test compounds are serially diluted (3-fold or 4-fold, 8-concentration) using the same media and added to the plates (15 to 25 μL/well). After 72 h of cultivation, the plates are assayed for cell cytotoxicity/viability by using the following two methods.
Cells in plates are fixed with cold trichloroacetic acid (TCA) (50% w/v in DI water, 1/4 volume of the medium in each well), and incubated at 4° C. for 1 h (adherent cells) or 2 h (suspension cells). The plates are washed 5 times (tap water×3, DI water×2) and air-dried. SRB solution 0.4% (w/v) in 1% acetic acid is added to each well (60 μL/well) and the plates are incubated at room temperature for 30 min, then washed with 1% acetic acid solution 4 times, and air-dried.
The plates are added CellTiter-Glo® Reagent (95 μL/well) and read the luminescence on a BioTek H4 reader per manufacture's protocol.
The raw data are processed using BioTek's Software Gen5 (v2.03.01) to generate inhibitory IC50 values.

PI3Kα = target: T1, PI3Kα (Homo sapiens, UniProt P42336); assay: Kinase enzyme assay (ADP-Glo), PI3Kα; type: biochemical; conditions: read-out: In Vitro Enzymatic IC50 PI3Kα
T1 construct: purchased Invitrogen, or BPS Bioscience Inc., or SignalChem PV4788 / 40620 / P27-18H
T1 sequence (P42336 whole entry): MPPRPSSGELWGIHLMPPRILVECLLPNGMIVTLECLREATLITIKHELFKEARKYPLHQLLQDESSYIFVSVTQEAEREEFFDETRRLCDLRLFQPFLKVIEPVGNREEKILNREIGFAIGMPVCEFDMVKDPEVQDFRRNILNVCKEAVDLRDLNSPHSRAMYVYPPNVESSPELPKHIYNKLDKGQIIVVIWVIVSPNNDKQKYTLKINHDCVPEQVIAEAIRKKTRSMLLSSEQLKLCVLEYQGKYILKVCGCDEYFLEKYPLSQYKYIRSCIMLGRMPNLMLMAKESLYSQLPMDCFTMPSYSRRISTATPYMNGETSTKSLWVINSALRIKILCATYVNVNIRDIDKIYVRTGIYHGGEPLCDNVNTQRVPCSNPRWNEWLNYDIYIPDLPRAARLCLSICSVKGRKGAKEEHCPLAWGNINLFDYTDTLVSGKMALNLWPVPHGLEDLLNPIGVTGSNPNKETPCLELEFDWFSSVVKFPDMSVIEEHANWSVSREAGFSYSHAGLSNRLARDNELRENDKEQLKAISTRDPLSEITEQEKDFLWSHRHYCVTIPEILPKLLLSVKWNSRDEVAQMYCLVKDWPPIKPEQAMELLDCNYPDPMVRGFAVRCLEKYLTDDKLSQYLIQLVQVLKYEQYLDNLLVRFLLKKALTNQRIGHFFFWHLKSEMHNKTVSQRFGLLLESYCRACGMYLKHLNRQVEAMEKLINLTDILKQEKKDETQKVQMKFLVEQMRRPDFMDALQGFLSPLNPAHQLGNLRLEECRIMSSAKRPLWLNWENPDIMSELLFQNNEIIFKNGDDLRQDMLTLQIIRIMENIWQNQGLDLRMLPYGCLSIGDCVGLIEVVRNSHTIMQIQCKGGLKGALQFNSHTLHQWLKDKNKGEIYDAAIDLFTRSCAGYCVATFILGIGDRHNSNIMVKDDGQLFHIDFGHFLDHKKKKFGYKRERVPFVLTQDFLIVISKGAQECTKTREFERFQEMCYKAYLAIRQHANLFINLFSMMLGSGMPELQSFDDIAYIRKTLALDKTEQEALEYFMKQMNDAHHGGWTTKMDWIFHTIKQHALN
T1 sequence (P27986 whole entry partner): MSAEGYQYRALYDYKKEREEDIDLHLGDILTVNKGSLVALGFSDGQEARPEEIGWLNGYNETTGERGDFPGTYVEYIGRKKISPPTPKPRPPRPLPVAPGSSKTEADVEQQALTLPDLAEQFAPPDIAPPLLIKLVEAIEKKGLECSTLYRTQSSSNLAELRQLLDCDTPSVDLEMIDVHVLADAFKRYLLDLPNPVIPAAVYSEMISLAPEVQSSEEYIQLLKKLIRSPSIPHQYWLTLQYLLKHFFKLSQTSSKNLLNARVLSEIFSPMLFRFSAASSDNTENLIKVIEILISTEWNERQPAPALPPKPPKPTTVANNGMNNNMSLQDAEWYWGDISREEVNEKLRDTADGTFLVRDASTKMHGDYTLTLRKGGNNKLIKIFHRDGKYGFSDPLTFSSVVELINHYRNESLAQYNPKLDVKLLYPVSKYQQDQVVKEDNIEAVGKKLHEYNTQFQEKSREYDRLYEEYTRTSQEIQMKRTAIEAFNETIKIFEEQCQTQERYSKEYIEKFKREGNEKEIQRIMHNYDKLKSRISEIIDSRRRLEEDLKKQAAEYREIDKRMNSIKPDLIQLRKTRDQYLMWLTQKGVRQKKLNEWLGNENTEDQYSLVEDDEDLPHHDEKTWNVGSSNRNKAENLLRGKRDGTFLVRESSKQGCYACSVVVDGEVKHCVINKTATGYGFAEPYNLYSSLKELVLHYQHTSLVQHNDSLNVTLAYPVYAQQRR

p110α(H1047R)/p85α = target: T2, p110α(H1047R)/p85α (Homo sapiens, UniProt P42336, H1047R); assay: Kinase enzyme assay (ADP-Glo), PI3Kα (H1047R); type: biochemical; conditions: read-out: In Vitro Enzymatic IC50 PI3Kα (H1047R)
T2 construct: purchased BPS 40641
T2 sequence (P42336 whole entry H1047R): as the sequence (P42336 whole entry) above, with H1047R counted along it
T2 sequence (P27986 whole entry partner): as the sequence (P27986 whole entry partner) above

[1] = Microsomal stability, human liver microsomes; conditions: human, microsomes, 0.75 h, 5 μM, pH 7.4
How it was run: (§1)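 Liver microsomes at 0.5 mg/mL protein incubated with compound for 30 min (mouse), 45 min (rat), or 30 or 45 min (human). Reaction stopped with ice-cold acetonitrile containing 0.3% formic acid; % parent remaining measured by LC-MS.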

[2] = Microsomal stability, mouse liver microsomes; conditions: mouse, microsomes, 0.5 h, 5 μM, pH 7.4
How it was run: as §1

[3] = Microsomal stability, rat liver microsomes; conditions: rat, microsomes, 0.75 h, 5 μM, pH 7.4
How it was run: as §1

[4] = test system: histone 3 (Lys 9) and α-tubulin acetylation (HDACs) in PC-3 cells; assay: Western blot, acetylation of histone 3 (Lys 9) and α-tubulin in PC-3 cells; type: cell-based, human; conditions: 24 h, 1 or 10 μM
Experimental: Proteins in cell lysates are resolved by SDS-PAGE and transferred to PVDF and probed with appropriate primary and secondary antibodies. […] Representative Western blot images are shown in FIG. 15 and analyzed results are presented by FIGS. 17 to 20.
PC-3 cells were treated with test compounds at the following concentrations (all contain 0.1% DMSO) for 24 h at 37° C., and then processed according to section of Western Blot Analysis.
The graph represents results from two Western Blot analyses. […] Vehicle DMSO (0.1%) was used as blank control, and its acH3 level was normalized to 1. Y Axis is expressed as Mean±SD if applicable.
Vehicle DMSO (0.1%) as blank control, and its acetylation level was normalized to 1. Y Axis is expressed as Mean±SD if applicable.

PC-3 tumors = assay: Target modulation in PC-3 prostate cancer xenograft (histone H3 acetylation, Western blot); type: in vivo, mouse; conditions: BALB/c nude mice, oral, EX1 150 mg/kg, EX78 100 mg/kg
From the text: Blood samples, tumors and other tissues were collected for PK/PD studies at the indicated time points (two mice each time point).
The lanes and the concentrations used were as follows: […]

PI3Kβ = target: T3, PI3Kβ (Homo sapiens, UniProt P42338); assay: Kinase enzyme assay (ADP-Glo), PI3Kβ; type: biochemical; conditions: read-out: In Vitro Enzymatic IC50 PI3Kβ
T3 construct: purchased SignalChem or BPS P28-10H / 40622
T3 sequence (P42338 whole entry): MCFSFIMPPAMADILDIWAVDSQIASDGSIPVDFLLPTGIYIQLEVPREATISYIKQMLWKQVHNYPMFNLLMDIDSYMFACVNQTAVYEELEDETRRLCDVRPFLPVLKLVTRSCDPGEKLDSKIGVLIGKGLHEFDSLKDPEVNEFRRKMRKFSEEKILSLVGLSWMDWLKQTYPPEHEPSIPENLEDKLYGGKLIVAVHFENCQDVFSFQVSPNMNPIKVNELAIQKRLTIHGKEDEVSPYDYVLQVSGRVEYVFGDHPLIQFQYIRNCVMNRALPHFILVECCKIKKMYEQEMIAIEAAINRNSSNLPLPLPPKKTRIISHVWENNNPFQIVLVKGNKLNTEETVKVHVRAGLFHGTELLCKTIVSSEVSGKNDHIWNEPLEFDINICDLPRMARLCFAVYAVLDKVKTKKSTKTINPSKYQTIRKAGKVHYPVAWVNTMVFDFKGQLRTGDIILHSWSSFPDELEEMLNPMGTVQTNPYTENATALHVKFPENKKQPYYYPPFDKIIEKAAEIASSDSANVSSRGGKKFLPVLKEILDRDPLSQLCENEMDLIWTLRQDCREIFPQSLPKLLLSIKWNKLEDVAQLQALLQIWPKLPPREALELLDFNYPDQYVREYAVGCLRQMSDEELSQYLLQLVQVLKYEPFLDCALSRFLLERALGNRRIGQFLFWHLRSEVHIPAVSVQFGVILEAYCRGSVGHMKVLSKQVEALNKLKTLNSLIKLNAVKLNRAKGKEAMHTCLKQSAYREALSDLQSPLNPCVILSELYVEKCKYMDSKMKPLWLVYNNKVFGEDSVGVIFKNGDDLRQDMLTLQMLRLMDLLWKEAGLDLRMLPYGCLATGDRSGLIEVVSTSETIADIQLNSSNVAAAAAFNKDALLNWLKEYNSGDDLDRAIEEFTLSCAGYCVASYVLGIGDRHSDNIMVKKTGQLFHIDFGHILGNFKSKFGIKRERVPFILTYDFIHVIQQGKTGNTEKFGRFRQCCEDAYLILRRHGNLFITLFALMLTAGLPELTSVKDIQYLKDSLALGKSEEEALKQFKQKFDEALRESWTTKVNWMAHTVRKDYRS
T3 sequence (P27986 whole entry partner): as the sequence (P27986 whole entry partner) above

| IC50 (PI3Kα) [nM] | IC50 (p110α(H1047R)/p85α) [nM] | Microsomal Stability HLM, % of remaining parent compound [1] [%] | Microsomal Stability MLM, % of remaining parent compound [2] [%] | Microsomal Stability RLM, % of remaining parent compound [3] [%] | IC50 (PI3Kβ) [nM] | Compound | IC50 (HEL9217) [nM] | Hyperacetylation of histone 3 (Lys 9) and α-tubulin [4] | Hyperacetylation of H3 in PC-3 tumors (PC-3 tumors) |
| --- | --- | --- | --- | --- | --- | --- | --- | --- | --- |
| – | – | – | – | – | – | CS(=O)(=O)N1CCN(Cc2cc3nc(-c4cccc5[nH]ncc45)nc(N4CCOCC4)c3s2)CC1 [GDC-0941, reference compound] | 2000 to 10000 | – | – |
| 1000 to 10000 | 1000 to 10000 | 101 | 96 | 70 | – | CC(C)n1cnc2c(-c3cccc(OCCCC(=O)NO)c3)nc(N3CCOCC3)nc21 [compound 1] | 500 to 2000 | the hyperacetylation effect is dose-dependent | Hyperacetylation of H3 in PC-3 tumors was confirmed |
| 10 to 100 | 10 to 100 | – | – | – | 10 to 100 | CCn1c(CN(C)Cc2ccc(C(=O)NO)cc2)nc2c(N3CCOCC3)nc(-c3cnc(N)nc3)nc21 [compound 7] | – | – | – |
